Results: patent EP4417602A1, “SUBSTITUTED PYRAZOLE CARBOXAMIDES, SALTS THEREOF AND THEIR USE AS HERBICIDALLY ACTIVE SUBSTANCES” (Bayer AG, priority 2023, dated 2024)

Key:
ECHCG [1] = test: C. Herbicidal pre-emergence action, weed and crop plants (Tables C); type: in vivo, Echinochloa crus-galli; details: application rate 320 g/ha; Table C6a
Description: (§1) Seeds of mono- and dicotyledonous weed plants and crop plants were sown, in plastic or organic planting pots, in sandy loam and covered with soil. The compounds according to the invention, formulated in the form of wettable powders (WP) or as emulsifiable concentrates (EC), were applied to the surface of the covering soil as aqueous suspension or emulsion, with the addition of 0.5% of an additive, at an application rate of 6001 of water/ha (converted). Following treatment, the pots were placed in a greenhouse and kept under optimum growth conditions for the test plants. The visual grading of the damage to the test plants was carried out after ca. 3 weeks in comparison to untreated controls (herbicidal effect in percent (%): 100% effect = plants have died off, 0% effect = as control plants). Tables C1 to C12 below show the effects of selected compounds of the general formula (I) according to table 1 on various harmful plants and an application rate corresponding to 320 g/ha or below obtained by the experimental procedure mentioned above. Table C1: pre-emergence activity at 320g/ha against KCHSC in %

ORYZA [2] = test: F. Post-emergence effects on crop plants (Tables F); type: in vivo, Oryza sativa; details: application rate 80 g/ha, crop plant
Description: (§2) Seeds of mono- and dicotyledonous weed plants and crop plants were sown, in plastic or organic planting pots, in sandy loam, covered with soil and grown in a greenhouse under controlled growth conditions. 2 to 3 weeks after sowing, the test plants were sprayed in the single-leaf stage. The compounds according to the invention, formulated in form of wettable powders (WP) or as emulsifiable concentrates (EC), were sprayed onto the green plant parts as aqueous suspension or emulsion, with the addition of 0.5% of an additive, at an application rate of 6001 of water/ha (converted). The test plants were placed in the greenhouse for ca. 3 weeks under optimum growth conditions, and then the effect of the preparations was assessed visually in comparison with untreated controls (herbicidal effect in percent (%): 100% effect = plants have died off, 0% effect = as control plants). Tables F1 to F5 below show the effects of selected compounds of the general formula (I) according to table 1 on various crop plants and an application rate corresponding to 320 g/ha or below obtained by the experimental procedure mentioned above. Table […]: post-emergence activity at 320g/ha against ZEAMX in %

ECHCG [3] = test: A. Herbicidal pre-emergence action on harmful plants (Tables A); type: in vivo, Echinochloa crus-galli; details: visual grading after ca. 3 weeks vs untreated controls, 100% = plants have died off, 0% = as control plants
Procedure, shortened: (§3)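 Greenhouse pre-emergence test: compound applied to the soil surface at 1280 g/ha or below, and herbicidal effect rated visually at ca. 3 weeks on a 0–100% scale against untreated plants.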

STEME = test: as above; type: in vivo, Stellaria media; details: visual grading after ca. 3 weeks vs untreated controls, 100% = plants have died off, 0% = as control plants
Procedure, shortened: as §3

ZEAMX = test: F. Post-emergence effects on crop plants (Tables F); type: in vivo, Zea mays; details: application rate 80 g/ha, crop plant
Description: as §2

ORYZA [4] = test: D. Pre-emergence effects on crop plants (Tables D); type: in vivo, Oryza sativa; details: crop plant; application rate 80 g/ha; Table D3b
Description: (§4) Seeds of mono- and dicotyledonous weed plants and crop plants were sown, in plastic or organic planting pots, in sandy loam and covered with soil. The compounds according to the invention, formulated in the form of wettable powders (WP) or as emulsifiable concentrates (EC), were applied to the surface of the covering soil as aqueous suspension or emulsion, with the addition of 0.5% of an additive, at an application rate of 6001 of water/ha (converted).
(§5) Following treatment, the pots were placed in a greenhouse and kept under optimum growth conditions for the test plants. The visual grading of the damage to the test plants was carried out after ca. 3 weeks in comparison to untreated controls (herbicidal effect in percent (%): 100% effect = plants have died off, 0% effect = as control plants).
(§6) Tables D1 to D5 below show the effects of various compounds of the general formula (I) according to Table 1 on various crop plants and an application rate corresponding to 320 g/ha or below obtained by the experimental procedure mentioned above in Biological Examples, Section C. Table D1a: pre-emergence activity at 320g/ha against ZEAMX in %

LOLRI [5] = test: A. Herbicidal pre-emergence action on harmful plants (Tables A); type: in vivo, Lolium rigidum; details: visual grading after ca. 3 weeks vs untreated controls, 100% = plants have died off, 0% = as control plants
Procedure, shortened: as §3

BRSNW [6] = test: D. Pre-emergence effects on crop plants (Tables D); type: in vivo, Brassica napus; details: application rate 80 g/ha, crop plant
Description: as §4, §5, §6

GLXMA [7] = test: D. Pre-emergence effects on crop plants (Tables D); type: in vivo, Glycine max; details: crop plant
Description: as §4, §5, §6

POAAN [8] = test: A. Herbicidal pre-emergence action on harmful plants (Tables A); type: in vivo, Poa annua
Procedure, shortened: as §3

BRSNW [9] = test: F. Post-emergence effects on crop plants (Tables F); type: in vivo, Brassica napus; details: application rate 80 g/ha, crop plant
Description: as §2

LOLRI [10] = test: C. Herbicidal pre-emergence action, weed and crop plants (Tables C); type: in vivo, Lolium rigidum; details: application rate 320 g/ha; Table C7a
Description: as §1

TRZAS = test: F. Post-emergence effects on crop plants (Tables F); type: in vivo, Triticum aestivum; details: application rate 80 g/ha, crop plant
Description: as §2

GLXMA [11] = test: as above; type: in vivo, Glycine max; details: application rate 320 g/ha, crop plant
Description: as §2

MATIN = test: A. Herbicidal pre-emergence action on harmful plants (Tables A); type: in vivo, Matricaria inodora; details: visual grading after ca. 3 weeks vs untreated controls, 100% = plants have died off, 0% = as control plants
Procedure, shortened: as §3

VIOTR = test: C. Herbicidal pre-emergence action, weed and crop plants (Tables C); type: in vivo, Viola tricolor; details: application rate 320 g/ha; Table C12a
Description: as §1

DIGSA [12] = test: as above; type: in vivo, Digitaria sanguinalis
Description: as §1

SETVI = test: A. Herbicidal pre-emergence action on harmful plants (Tables A); type: in vivo, Setaria viridis; details: visual grading after ca. 3 weeks vs untreated controls, 100% = plants have died off, 0% = as control plants
Procedure, shortened: as §3

ECHCG [13] = test: B. Herbicidal post-emergence action on harmful plants (Tables B); type: in vivo, Echinochloa crus-galli; details: application rate 1280 g/ha; Table B2a
Procedure, shortened: (§7)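 Activity was scored visually as % damage (100% = dead, 0% = like untreated) about 3 weeks after treatment. Plants at the one-leaf stage, 2-3 weeks old, were sprayed with WP/EC formulations plus 0.5% additive (600 L/ha water, up to 1280 g/ha). Plants were grown in sandy loam in a greenhouse.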

DIGSA [14] = test: A. Herbicidal pre-emergence action on harmful plants (Tables A); type: in vivo, Digitaria sanguinalis
Procedure, shortened: as §3

VERPE = test: as above; type: in vivo, Veronica persica; details: application rate 1280 g/ha; Table A11
Description: (§8) Seeds of mono- and dicotyledonous weed plants were sown in plastic pots (double sowings with one species of mono- and one species of dicotyledonous weed plants per pot), in sandy loam, and covered with soil. The compounds according to the invention, formulated in the form of wettable powders (WP) or as emulsifiable concentrates (EC), were applied to the surface of the covering soil as aqueous suspension or emulsion, with the addition of 0.5% of an additive, at an application rate of 6001 of water per hectare (converted). Following treatment, the pots were placed in a greenhouse and kept under optimum growth conditions for the test plants. The visual grading of the damage to the test plants was carried out after ca. 3 weeks in comparison to untreated controls (herbicidal effect in percent (%): 100% effect = plants have died off, 0% effect = as control plants). Tables A1 to A12, below, show the effects of selected compounds of the general formula (I) according to table 1 on various harmful plants and an application rate corresponding to 1280 g/ha or below obtained by the experimental procedure mentioned above. Table A1: pre-emergence activity at 1280g/ha against ABUTH in %

ABUTH = test: as above; type: in vivo, Abutilon theophrasti; details: application rate 1280 g/ha; visual grading after ca. 3 weeks vs untreated controls; 100% = plants have died off, 0% = as control plants
Description: as §8

AMARE = test: as above; type: in vivo, Amaranthus retroflexus
Procedure, shortened: as §3

POAAN [15] = test: B. Herbicidal post-emergence action on harmful plants (Tables B); type: in vivo, Poa annua
Procedure, shortened: as §7

ALOMY = test: A. Herbicidal pre-emergence action on harmful plants (Tables A); type: in vivo, Alopecurus myosuroides
Procedure, shortened: as §3

[16] = application rate 80 g/ha, Table A7c
[17] = application rate 320 g/ha, Table A7b
[18] = application rate 1280 g/ha, visual grading after ca. 3 weeks vs untreated controls, 100% = plants have died off, 0% = as control plants

COCc1nn(C)cc1C(=O)N1CCCC1Cc1cc(F)ccc1F (racemic) [Example I-001]
10%: post-emergence activity against BRSNW in % (BRSNW [9]) | post-emergence activity against TRZAS in % (TRZAS)
90%: pre-emergence activity against ECHCG (ECHCG [1]) | pre-emergence activity against STEME (STEME; application rate 320 g/ha) | pre-emergence activity against STEME (STEME; application rate 1280 g/ha) | pre-emergence activity against MATIN (MATIN; application rate 1280 g/ha) | pre-emergence activity against DIGSA (DIGSA [12]; application rate 80 g/ha, Table C5b) | pre-emergence activity against SETVI (SETVI; application rate 320 g/ha)
20%: pre-emergence activity against ORYZA (ORYZA [4]) | pre-emergence activity against GLXMA (GLXMA [7]; application rate 320 g/ha, Table D4a) | post-emergence activity against GLXMA in % (GLXMA [11])
100%: pre-emergence activity against ECHCG (ECHCG [3]; application rate 320 g/ha) | pre-emergence activity against ECHCG (ECHCG [3]; application rate 1280 g/ha) | pre-emergence activity against LOLRI (LOLRI [5]; application rate 1280 g/ha) | pre-emergence activity against POAAN (POAAN [8]; [16]) | pre-emergence activity against POAAN (POAAN [8]; [17]) | pre-emergence activity against POAAN (POAAN [8]; [18]) | pre-emergence activity against DIGSA (DIGSA [12]; application rate 320 g/ha, Table C5a) | pre-emergence activity against SETVI (SETVI; application rate 1280 g/ha)
80%: pre-emergence activity against LOLRI (LOLRI [10]) | pre-emergence activity against VIOTR (VIOTR)
0%: post-emergence activity against ORYZA in % (ORYZA [2]) | post-emergence activity against ZEAMX in % (ZEAMX) | pre-emergence activity against BRSNW in % (BRSNW [6]) | pre-emergence activity against GLXMA (GLXMA [7]; application rate 80 g/ha, Table D4b)

COCc1nn(C)cc1C(=O)N1CCCC1Cc1cc(F)ccc1F (single isomer, unassigned) [Example I-071]
90%: pre-emergence activity against ECHCG (ECHCG [3]; application rate 80 g/ha) | post-emergence activity against ECHCG (ECHCG [13]) | pre-emergence activity against STEME (STEME; application rate 320 g/ha) | pre-emergence activity against STEME (STEME; application rate 1280 g/ha) | pre-emergence activity against LOLRI (LOLRI [5]; application rate 80 g/ha) | pre-emergence activity against DIGSA (DIGSA [14]; application rate 80 g/ha, Table A12c) | pre-emergence activity against VERPE (VERPE) | pre-emergence activity against ABUTH (ABUTH) | pre-emergence activity against AMARE (AMARE; application rate 320 g/ha, Table A8b) | pre-emergence activity against AMARE (AMARE; [18]) | pre-emergence activity against MATIN (MATIN; application rate 320 g/ha) | pre-emergence activity against MATIN (MATIN; application rate 1280 g/ha) | post-emergence activity against POAAN (POAAN [15]; application rate 320 g/ha, Table B7b) | post-emergence activity against POAAN (POAAN [15]; application rate 1280 g/ha, Table B7a) | pre-emergence activity against SETVI (SETVI; application rate 80 g/ha) | pre-emergence activity against SETVI (SETVI; application rate 320 g/ha) | pre-emergence activity against SETVI (SETVI; application rate 1280 g/ha) | pre-emergence activity against ALOMY (ALOMY; application rate 320 g/ha, Table A9b) | pre-emergence activity against ALOMY (ALOMY; application rate 1280 g/ha, Table A9a)
100%: pre-emergence activity against ECHCG (ECHCG [3]; application rate 320 g/ha) | pre-emergence activity against ECHCG (ECHCG [3]; application rate 1280 g/ha) | pre-emergence activity against LOLRI (LOLRI [5]; application rate 320 g/ha) | pre-emergence activity against LOLRI (LOLRI [5]; application rate 1280 g/ha) | pre-emergence activity against DIGSA (DIGSA [14]; application rate 320 g/ha, Table A12b) | pre-emergence activity against DIGSA (DIGSA [14]; application rate 1280 g/ha, Table A12a) | pre-emergence activity against POAAN (POAAN [8]; [16]) | pre-emergence activity against POAAN (POAAN [8]; [17]) | pre-emergence activity against POAAN (POAAN [8]; [18])
